{"source": "patent US20080031893A1", "about": "(Metaproteomics, LLC, priority 2006, published 2008)", "key": {"3T3-L1 adipocytes [1]": {"test_system": "3T3-L1 adipocytes", "assay": "Adiponectin secretion in LPS/3T3-L1 adipocytes", "format": "cell-based, murine", "details": "for adiponectin secretion: LPS, any dose tested; for % Stimulation (maximum) of adiponectin secretion: 0.625 μg/ml"}, "3T3-L1 adipocytes [2]": {"test_system": "3T3-L1 adipocytes", "assay": "Adiponectin secretion from insulin-resistant 3T3-L1 adipocytes", "format": "cell-based, murine", "description": "3T3-L1 cells were seeded at an initial density of 1×10^4 cells/cm^2 in 96-well plates. For two days, the cells were allowed grow to reach confluence. Following confluence, the cells were forced to differentiate into adipocytes by the addition of differentiation medium; this medium consisted of (1) 10% FBS/DMEM (high glucose); (2) 0.5 mM methylisobutylxanthine; (3) 0.5 μM dexamethasone and (4) 10 μg/ml insulin (MDI medium). From Day 3 through Day 5, the medium was changed to post-differentiation medium consisting of 10 μg/ml insulin in 10% FBS/DMEM.\nBriefly, on Day 6, cells were maintained in serum-free media containing 0.5% bovine serum albumin (BSA) for three hours and then treated with 1 μg insulin/ml plus solvent or insulin plus test material. […] Twenty-four hours later, the supernatant medium was sampled for adiponectin determination.\nAdiponectin Assay—The adiponectin secreted into the medium was quantified using the Mouse Adiponectin Quantikine® Immunoassay kit with no modifications (R&D Systems, Minneapolis, Minn.).\nStatistical Calculations and Interpretation—All assays were preformed in duplicate. […] Differences between the doses were determined using the student's t-test without correction for multiple comparisons; the nominal five percent probability of a type I error was selected. […]"}, "3T3-L1 adipocytes [3]": {"test_system": "3T3-L1 adipocytes", "assay": "IL-6 secretion from TNFα-treated 3T3-L1 adipocytes", "format": "cell-based, murine", "details": "10 ng TNFα/ml", "description": "Interleukin-6 Assay—The IL-6 secreted into the medium was quantified using the Quantikine® Mouse IL-6 Immunoassay kit with no modifications (R&D Systems, Minneapolis, Minn.). […] All supernatant media samples were assayed undiluted.\nStatistical Calculations and Interpretation—All assays were preformed in duplicate. […] Differences among the doses were determined using the student's t-test without correction for multiple comparisons; the nominal five percent probability of a type I error (one-tail) was selected."}, "3T3-L1 adipocytes [4]": {"test_system": "3T3-L1 adipocytes", "assay": "IL-6 secretion in LPS/3T3-L1 adipocytes", "format": "cell-based, murine", "details": "100 ng LPS/ml"}, "3T3-L1 adipocytes [5]": {"test_system": "3T3-L1 adipocytes", "assay": "Adiponectin secretion from TNFα-treated 3T3-L1 adipocytes", "format": "cell-based, murine", "description": "For two days, the cells were allowed grow to reach confluence. […] (3) 0.5 μM dexamethasone and (4) 10 μg/ml insulin (MDI medium). […] Adiponectin Assay—The adiponectin secreted into the medium was quantified using the Mouse Adiponectin Quantikine® Immunoassay kit with no modifications (R&D Systems, Minneapolis, Minn.). […] Statistical Calculations and Interpretation—All assays were preformed in duplicate. […] Differences among the doses and test agents were determined using the Student's t-test without correction for multiple comparisons; the nominal five percent probability of a type I error was selected."}, "NF-kBp65": {"test_system": "NF-kBp65", "assay": "Nuclear translocation of NF-kBp65 in TNFα-treated 3T3-L1 adipocytes", "format": "cell-based, murine", "details": "three or 24 hours following TNFα", "procedure": "Cell Culture and Treatment—Following differentiation 3T3-L1 adipocytes were maintained in post-differentiation medium for an additional 40 days. […] Hops derivatives and the positive control pioglitazone were tested at concentrations of 2.5, and 5.0 μg/ml. Test materials were added 1 hour prior to and nuclear extracts were prepared three and 24 hours following treatment with TNFα.\nELISA—3T3-L1 adipocytes were maintained in growth media for 40 days following differentiation. Nuclear NF-kBp65 was determined using the TransAM™ NF-kB kit from Active Motif (Carlsbad, Calif.) was used with no modifications. Jurkat nuclear extracts provided in the kit were derived from cells cultured in medium supplemented with 50 ng/ml TPA (phorbol, 12-myristate, 13 acetate) and 0.5 μM calcium ionophore A23187 for two hours at 37° C. immediately prior to harvesting.\nProtein assay—Nuclear protein was quantified using the Active Motif Fluorescent Protein Quantification Kit.\nStatistical Analysis—Comparisons were performed using a one-tailed Student's t-test. The probability of a type I error was set at the nominal five percent level."}, "3T3-L1 adipocytes [6]": {"test_system": "3T3-L1 adipocytes", "assay": "Lipogenesis in 3T3-L1 adipocytes (Oil Red O / BODIPY)", "format": "cell-based, murine", "details": "for adipogenic response of hops compounds: 10, 5, 4 or 2 μg/ml, spent hops 50 μg/ml", "description": "Prior to experiments, cells were cultured in DMEM containing 10% FBS-HI added 50 units penicillin/ml and 50 μg streptomycin/ml, and maintained in log phase prior to experimental setup. Cells were grown in a 5% CO2 humidified incubator at 37° C. Components of the pre-confluent medium included (1) 10% FBS/DMEM containing 4.5 g glucose/L; (2) 50 U/ml penicillin; and (3) 50 μg/ml streptomycin. Growth medium was made by adding 50 ml of heat inactivated FBS and 5 ml of penicillin/streptomycin to 500 ml DMEM. This medium was stored at 4° C. Before use, the medium was warmed to 37° C. in a water bath.\n3T3-T1 cells were seeded at an initial density of 6×10^4 cells/cm^2 in 24-well plates. For two days, the cells were allowed grow to reach confluence. Following confluence, the cells were forced to differentiate into adipocytes by the addition of differentiation medium; this medium consisted of (1) 10% FBS/DMEM (high glucose); (2) 0.5 mM methylisobutylxanthine; (3) 0.5 μM dexamethasone and (4) 10 μg/ml insulin (MDI medium). After three days, the medium was changed to post-differentiation medium consisting of 10 μg/ml insulin in 10% FBS/DMEM.\nAcE was partially dissolved in dimethyl sulfoxide (DMSO) and added to the culture medium to achieve a concentration of 50 μg/ml at Day 0 of differentiation and throughout the maturation phase (Days 6 or 7 (D6/7)). Whenever fresh media were added, fresh test material was also added. DMSO was chosen for its polarity and the fact that it is miscible with the aqueous cell culture media.\nOil Red O Staining—Triglyceride content of D6/D7-differentiated 3T3-L1 cells was estimated with Oil Red O according to the method of Kasturi and Joshi [Kasturi, R. and Joshi, V. C. […] Monolayer cells were washed with PBS (phosphate buffered saline, Mediatech) and fixed with 10% formaldehyde for ten minutes. Fixed cells were stained with an Oil Red O working solution of three parts 0.6% Oil Red O/isopropanol stock solution and two parts water for one hour and the excess stain was washed once with water. The resulting stained oil droplets were extracted from the cells with isopropanol and quantified by spectrophotometric analysis at 540 nm (MEL312e BIO-KINETICS READER, Bio-Tek Instruments, Winooski, Vt.).\nBriefly, media were removed and cells were washed once with non-sterile PBS. A stock 1000× BODIPY/DMSO solution was made by dissolving 1 mg BODIPY in 1 ml DMSO (1,000 μg BODIPY/ml). […] After 15 min on an orbital shaker (DS-500, VWR Scientific Products, South Plainfield, N.J.) at ambient temperature, the cells were washed with 100 μl PBS followed by the addition of 100 μl PBS for reading for spectrofluorometric determination of BODIPY incorporation into the cells. […]"}, "[7]": {"assay": "Non-fasting serum glucose and insulin in db/db diabetic mice", "format": "in vivo, mouse", "details": "three consecutive days, gavage", "description": "The Model—Male, C57BLKS/J m^+/m^+Lepr^db (db/db) mice were used to assess the potential of the test materials to reduce fasting serum glucose or insulin concentrations. This strain of mice is resistant to leptin by virtue of the absence of a functioning leptin receptor.\nTesting Procedure—Test substances were administered daily by gavage in 0.2% Tween-80. Serum was collected from the retroorbital sinus before the initial dose and ninety minutes after the third and final dose. Non-fasting serum glucose was determined enzymatically by the mutarotase/glucose oxidase method and serum insulin was determined by a mouse specific ELISA.\nThe Model—Male, C57BLKS/J m+/m+ Leprdb (db/db) mice were used to assess the potential of the test materials to reduce fasting serum glucose or insulin concentrations. This strain of mice is resistant to leptin by virtue of the absence of a functioning leptin receptor.\nTesting Procedure—Test substances were administered daily by gavage in 0.2% Tween-80. Serum was collected from the retroorbital sinus before the initial dose and ninety minutes after the fifth and final dose. Non-fasting serum glucose was determined enzymatically by the mutarotase/glucose oxidase method and serum insulin was determined by a mouse specific ELISA."}, "PI3K gamma": {"molecular_target": "PI3K gamma (Homo sapiens, UniProt P48736)", "sequence (P48736 whole entry)": "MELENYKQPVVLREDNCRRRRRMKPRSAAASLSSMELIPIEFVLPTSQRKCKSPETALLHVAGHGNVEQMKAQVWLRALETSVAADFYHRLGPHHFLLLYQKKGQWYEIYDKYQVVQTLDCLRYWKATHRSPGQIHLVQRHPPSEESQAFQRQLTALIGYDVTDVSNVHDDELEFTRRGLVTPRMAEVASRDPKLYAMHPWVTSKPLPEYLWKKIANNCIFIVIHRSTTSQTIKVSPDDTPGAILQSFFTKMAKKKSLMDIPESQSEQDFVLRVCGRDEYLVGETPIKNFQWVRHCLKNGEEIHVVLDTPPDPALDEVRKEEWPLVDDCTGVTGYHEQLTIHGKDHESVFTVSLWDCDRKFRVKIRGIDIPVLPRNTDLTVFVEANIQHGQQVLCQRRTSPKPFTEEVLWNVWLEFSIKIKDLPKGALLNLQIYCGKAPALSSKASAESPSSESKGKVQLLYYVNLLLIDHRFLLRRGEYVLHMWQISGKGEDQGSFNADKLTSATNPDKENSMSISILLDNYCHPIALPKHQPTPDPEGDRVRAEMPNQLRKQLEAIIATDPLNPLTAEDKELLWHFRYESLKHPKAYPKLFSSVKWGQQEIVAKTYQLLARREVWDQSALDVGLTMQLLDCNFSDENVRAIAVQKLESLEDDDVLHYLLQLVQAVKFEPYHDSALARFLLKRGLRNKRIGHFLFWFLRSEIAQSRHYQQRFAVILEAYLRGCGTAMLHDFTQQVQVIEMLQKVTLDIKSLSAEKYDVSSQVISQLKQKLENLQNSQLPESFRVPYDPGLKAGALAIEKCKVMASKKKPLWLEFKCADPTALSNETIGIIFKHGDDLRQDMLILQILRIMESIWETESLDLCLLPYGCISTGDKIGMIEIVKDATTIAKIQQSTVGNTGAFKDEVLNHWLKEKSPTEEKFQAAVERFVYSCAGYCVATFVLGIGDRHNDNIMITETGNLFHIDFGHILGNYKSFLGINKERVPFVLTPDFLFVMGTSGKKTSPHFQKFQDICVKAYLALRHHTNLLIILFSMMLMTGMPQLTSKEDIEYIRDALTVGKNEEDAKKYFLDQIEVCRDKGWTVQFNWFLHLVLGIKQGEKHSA", "assay": "KinaseProfiler Assay", "format": "biochemical", "details": "50 μg/ml"}, "[8]": {"test_system": "A549 pulmonary epithelial cells", "assay": "PGE2 biosynthesis in A549 cells stimulated by mite dust allergen", "format": "cell-based, human", "details": "10 μg/ml, mite allergen 1000 ng/ml, 18 h", "description": "The filtrate was termed mite dust allergen and used to test for induction of PGE2 biosynthesis in A549 pulmonary epithelial cells.\nMite allergen was added to the culture medium to achieve a final concentration of 1000 ng/ml. Eighteen hours later, the media were sampled for PGE2 determination."}, "[9]": {"details": "10 ng TNFα/ml, listed as indomethacin"}}, "note": "Marks after values point to notes of the source that are not given here.", "data": [{"compound": "CC(=O)Oc1ccccc1C(=O)O", "note": "[Aspirin]", "values": [{"measurement": "adiponectin secretion", "setting": "3T3-L1 adipocytes [1]", "result": "failed to induce adiponectin secretion"}]}, {"compound": "CC(C)CCC1=C(O)C(C(=O)C(C)C)=C(O)C(CCC(C)C)(CCC(C)C)C1=O", "note": "[Hexahydrocolupulone (HHCL)]", "values": [{"measurement": "Adiponectin/IL-6", "setting": "3T3-L1 adipocytes [2]; 50.0 μg/ml, ratio of indices", "result": "0.60#"}]}, {"compound": "COc1ccc2c(c1)c(CC(=O)O)c(C)n2C(=O)c1ccc(Cl)cc1", "note": "[Indomethacin, indomethacin]", "values": [{"measurement": "IL-6 secretion in the presence of TNFα", "setting": "3T3-L1 adipocytes [3]", "result": "no anti-inflammatory effect"}, {"measurement": "% Inhibition (maximum) of IL-6 secretion", "setting": "3T3-L1 adipocytes [4]; 5.00 μg/ml", "result": "53* %"}, {"measurement": "adiponectin secretion", "setting": "3T3-L1 adipocytes [5]; 0.5 ng TNFα/ml, 50 μg/ml", "result": "dose-dependant decrease in adiponectin secretion"}, {"measurement": "Concentration of maximum adiponectin secretion", "setting": "3T3-L1 adipocytes [5]; 10 ng TNFα/ml", "result": 5.0, "unit": "µg/mL"}, {"measurement": "Concentration of maximum adiponectin secretion", "setting": "3T3-L1 adipocytes [5]; [9]", "result": 2.5, "unit": "µg/mL"}, {"measurement": "maximum increase of adiponectin secretion from TNFα solvent control", "setting": "3T3-L1 adipocytes [5]; [9]", "result": 94, "unit": "%"}, {"measurement": "Adiponectin/IL-6", "setting": "3T3-L1 adipocytes [5]; […], 10 ng TNFα/ml", "result": "2.00*"}]}, {"compound": "CCc1ccc(CCOc2ccc(CC3SC(=O)NC3=O)cc2)nc1", "note": "(stereo not shown) [Pioglitazone]", "values": [{"measurement": "IL-6 Index", "setting": "3T3-L1 adipocytes [4]; 5.00 μg/ml (dose providing maximum inhibition)", "result": "0.37*"}, {"measurement": "inhibition at 5 µg/mL", "setting": "3T3-L1 adipocytes [4]; Mus musculus, 3T3-L1, 5.00 μg/ml, read-out: % Inhibition (maximum) of IL-6 secretion", "result": 63, "unit": "%"}, {"measurement": "maximum increase of adiponectin secretion from TNFα solvent control", "setting": "3T3-L1 adipocytes [5]; 10 ng TNFα/ml", "result": 80, "unit": "%"}, {"measurement": "Adiponectin Index (maximum over four doses)", "setting": "3T3-L1 adipocytes [5]; 10 ng TNFα/ml, Example 17", "result": 1.47}, {"measurement": "Adiponectin Index Observed", "setting": "3T3-L1 adipocytes [5]; 1.0 μg/ml, indexed to TNFα control", "result": 1.80}, {"measurement": "nuclear NF-kBp65", "setting": "NF-kBp65", "result": "did not inhibit"}]}, {"compound": "Cc1c(C)c2c(c(C)c1O)CCC(C)(COc1ccc(CC3SC(=O)NC3=O)cc1)O2", "note": "(stereo not shown) [Troglitazone]", "values": [{"measurement": "inhibition at 10 µg/mL", "setting": "3T3-L1 adipocytes [4]; Mus musculus, 3T3-L1, 10.0 μg/ml, read-out: % Inhibition (maximum) of IL-6 secretion", "result": 69, "unit": "%"}, {"measurement": "maximum increase of adiponectin secretion from TNFα solvent control", "setting": "3T3-L1 adipocytes [5]; 10 ng TNFα/ml", "result": 51, "unit": "%"}, {"measurement": "% Stimulation (maximum) of adiponectin secretion", "setting": "3T3-L1 adipocytes [1]", "result": 15, "unit": "%"}]}, {"compound": "CC(C)CCC1=C(O)C(C(=O)C(C)C)=C(O)C(CCC(C)C)(CCC(C)C)C1=O", "note": "[hexahydrocolupulone]", "values": [{"measurement": "concentration for half maximal adiponectin secretion", "setting": "3T3-L1 adipocytes [2]; Hofstee plot", "result": 3.2, "unit": "µg/mL"}, {"measurement": "adipogenic response of hops compounds", "setting": "3T3-L1 adipocytes [6]", "result": "failed to elicit a lipogenic response greater than the solvent controls"}]}, {"compound": "CC(C)Cc1ccc(C(C)C(=O)O)cc1", "note": "(stereo not shown) [ibuprofen]", "values": [{"measurement": "inhibition at 0.625 µg/mL", "setting": "3T3-L1 adipocytes [4]; Mus musculus, 3T3-L1, 0.625 μg/ml, read-out: % Inhibition (maximum) of IL-6 secretion", "result": 54, "unit": "%"}, {"measurement": "% Stimulation (maximum) of adiponectin secretion", "setting": "3T3-L1 adipocytes [1]", "result": 22, "unit": "%"}]}, {"compound": "CN(C)C(=N)N=C(N)N", "note": "[metformin, Metformin]", "values": [{"measurement": "lipogenic index", "setting": "3T3-L1 adipocytes [6]; 50 μg test material/ml, observed", "result": 0.79}, {"measurement": "serum glucose relative to controls", "setting": "[7]", "result": "decreased both serum glucose and insulin concentrations"}]}, {"compound": "O=C(O)c1ccccc1O", "note": "[salicylic acid]", "values": [{"measurement": "IL-6 Index", "setting": "3T3-L1 adipocytes [4]; 50.0 μg/ml (dose providing maximum inhibition)", "result": "0.52*"}, {"measurement": "inhibition at 50 µg/mL", "setting": "3T3-L1 adipocytes [4]; Mus musculus, 3T3-L1, 50.0 μg/ml, read-out: % Inhibition (maximum) of IL-6 secretion", "result": 48, "unit": "%"}, {"measurement": "adiponectin secretion", "setting": "3T3-L1 adipocytes [1]", "result": "failed to induce adiponectin secretion"}]}, {"compound": "COc1cc(O)c(CC=C(C)C)c(O)c1C(=O)/C=C/c1ccc(O)cc1", "note": "[xanthohumol]", "values": [{"measurement": "PI3K isoform preference", "setting": "PI3K gamma", "result": "more inhibitory to PI3K-γ than to PI3K-β or PI3K-δ"}, {"measurement": "adipogenic response of hops compounds", "setting": "3T3-L1 adipocytes [6]", "result": "comparable to indomethacin and troglitazone"}]}, {"compound": "Beta acids", "values": [{"measurement": "adipogenic response of hops compounds", "setting": "3T3-L1 adipocytes [6]", "result": "comparable to indomethacin and troglitazone"}, {"measurement": "Percent PGE2 Inhibition", "setting": "[8]", "result": 83, "unit": "%"}]}]}
